Converted amounts (≈) assume the structure as drawn.
Columns and labels:
[1] = Metabolic stability study in human microsome; assay type: in vitro ADME
Protocol: Human Microsomes were preincubated with test compound for 10 min at 37° C. in 100 mM phosphate buffer, pH 7.4. The reactions were initiated by adding NADPH or NADPH regenerating system to give a final incubation volume of 400 μL. For NADPH system, the final incubations contained 1 μM test compound, 0.5 mg/mL liver microsomal protein, 1 mM NADPH in 100 mM phosphate buffer, pH 7.4. For the NADPH regenerating system, the final incubations contained 1 μM test compound, 0.5 mg/mL liver microsomal protein, 3 mM glucose 6-phosphate, 1 mM NADP, 3 mM MgCl2 and 0.05 mg/mL glucose 6-phosphate dehydrogenase in 100 mM phosphate buffer, pH 7.4. After incubation times of 0, 3, 6, 9, 15 and 30 minutes at 37° C., 50 μL samples was removed and transferred to 150 μL methanol solution which was maintained at 4° C. containing 2 μM tolbutamide (internal standard) to terminating the reaction. Following precipitation and centrifugation, the amount of compound remaining in the samples were determined by LC-MS/MS. Controls of no NADPH or NADPH regenerating system at zero and 30 min were also prepared and analyzed.

[2] = Lyophilisation solubility assay (Lysa); assay type: physicochemical; details: phosphate buffer, pH 6.5, aqueous buffer, thermodynamic from solid
Protocol: The aqueous solubility is an important physico-chemical property that plays a significant role in various physical and biological processes. It is desirable to have good solubility which enables good permeability and gastric and intestinal absorption, linear dose proportionality, less PK variability, and easy formulation for PD/PK studies. […] Lyophilisation solubility assay (Lysa) is a well adopted high throughput assay to measure compound solubility in industry.
Samples are prepared in duplicate from 10 mM DMSO stock solutions. After evaporation of DMSO with a centrifugal vacuum evaporator, the residue is solved in 0.05 M phosphate buffer (pH 6.5), stirred for one hour and shaken for two hours. After one night, the solutions is filtered using a microtiter filter plate and the filtrate and its 1/10 dilution are then analyzed by direct UV measurement or by HPLC-UV. […] The results are in μg/mL.

Human Hepatic Clearance [1] [mL/min/kg] | solubility thermodynamic [2] [µg/mL] | SMILES
7.51 |  | COC(=O)C1=C(CN2CC(F)(F)C[C@H]2C(=O)O)NC(c2nccs2)=NC1c1ccc(F)cc1Cl (stereo partly drawn) [Example 1, 6-((S)-2-Carboxy-4,4-difluoro-pyrrolidin-1-ylmethyl)-4-(2-chloro-4-fluoro-phenyl)-2-thiazol-2-yl-1,4-dihydro-pyrimidine-5-carboxylic acid methyl ester]
6.12 | 398 (≈ 752 µM) | COC(=O)C1=C(CN2CC(F)(F)CCC2C(=O)O)NC(c2nccs2)=N[C@H]1c1ccc(F)cc1Cl (stereo partly drawn) [Example 7, (R)-6-(2-Carboxy-5,5-difluoro-piperidin-1-ylmethyl)-4-(2-chloro-4-fluoro-phenyl)-2-thiazol-2-yl-1,4-dihydro-pyrimidine-5-carboxylic acid methyl ester]
6.33 | > 620 | COC(=O)C1=C(CN2CC(F)(F)C[C@H]2C(=O)O)NC(c2cc(C)ccn2)=N[C@H]1c1ccc(F)cc1Cl [Example 8, (R)-6-((S)-2-Carboxy-4,4-difluoro-pyrrolidin-1-ylmethyl)-4-(2-chloro-4-fluoro-phenyl)-2-(4-methyl-pyridin-2-yl)-1,4-dihydro-pyrimidine-5-carboxylic acid methyl ester]
10.07 | > 645 | COC(=O)C1=C(CN2CCOC[C@H]2C(=O)O)NC(c2cc(C)ccn2)=N[C@H]1c1ccc(F)cc1Cl [Example 9, (S)-4-[(R)-6-(2-Chloro-4-fluoro-phenyl)-5-methoxycarbonyl-2-(4-methyl-pyridin-2-yl)-3,6-dihydro-pyrimidin-4-ylmethyl]-morpholine-3-carboxylic acid]
2.33 | 594 (≈ 1210 µM) | COC(=O)C1=C(CN2CCOC[C@H]2C(=O)O)NC(c2nccn2C)=NC1c1ccc(F)cc1Cl (stereo partly drawn) [Example 13, (S)-4-[6-(2-Chloro-4-fluoro-phenyl)-5-methoxycarbonyl-2-(1-methyl-1H-imidazol-2-yl)-3,6-dihydro-pyrimidin-4-ylmethyl]-morpholine-3-carboxylic acid]
3.53 | > 627 | COC(=O)C1=C(CN2CC(F)(F)C[C@H]2C(=O)O)NC(c2nc(C)co2)=N[C@H]1c1ccc(F)cc1Cl [Example 15, (R)-6-((S)-2-Carboxy-4,4-difluoro-pyrrolidin-1-ylmethyl)-4-(2-chloro-4-fluoro-phenyl)-2-(4-methyl-oxazol-2-yl)-1,4-dihydro-pyrimidine-5-carboxylic acid methyl ester]
3.38 | > 659 | COC(=O)C1=C(CN2CC(F)(F)C[C@H]2C(=O)O)NC(c2nccs2)=N[C@H]1c1cc(F)c(F)cc1Cl [Example 18, (R)-6-((S)-2-Carboxy-4,4-difluoro-pyrrolidin-1-ylmethyl)-4-(2-chloro-4,5-difluoro-phenyl)-2-thiazol-2-yl-1,4-dihydro-pyrimidine-5-carboxylic acid methyl ester]
10.74 | 683 (≈ 1300 µM) | COC(=O)C1=C(CN2CC(F)(F)C[C@H]2C(=O)O)NC(c2nc(C)cn2C)=NC1c1ccc(F)cc1Cl (stereo partly drawn) [Example 20, 6-((S)-2-Carboxy-4,4-difluoro-pyrrolidin-1-ylmethyl)-4-(2-chloro-4-fluoro-phenyl)-2-(1,4-dimethyl-1H-imidazol-2-yl)-1,4-dihydro-pyrimidine-5-carboxylic acid methyl ester]
3.08 | 828 (≈ 1610 µM) | COC(=O)C1=C(CN2CCOC[C@H]2C(=O)O)NC(c2nccs2)=N[C@H]1c1cc(F)c(F)cc1Cl [Example 21, (S)-4-[(R)-6-(2-Chloro-4,5-difluoro-phenyl)-5-methoxycarbonyl-2-thiazol-2-yl-3,6-dihydro-pyrimidin-4-ylmethyl]-morpholine-3-carboxylic acid]
4.82 | 630 (≈ 1200 µM) | COC(=O)C1=C(CN2CC(F)(F)C[C@H]2C(=O)O)NC(c2ncccc2F)=N[C@H]1c1ccc(F)cc1Cl [Example 22, (R)-6-((S)-2-Carboxy-4,4-difluoro-pyrrolidin-1-ylmethyl)-4-(2-chloro-4-fluoro-phenyl)-2-(3-fluoro-pyridin-2-yl)-1,4-dihydro-pyrimidine-5-carboxylic acid methyl ester]
10.02 | 668 (≈ 1260 µM) | CCOC(=O)C1=C(CN2CC(F)(F)C[C@H]2C(=O)O)NC(c2nccs2)=NC1c1ccc(F)cc1Cl (stereo partly drawn) [Example 26, 6-((S)-2-Carboxy-4,4-difluoro-pyrrolidin-1-ylmethyl)-4-(2-chloro-4-fluoro-phenyl)-2-thiazol-2-yl-1,4-dihydro-pyrimidine-5-carboxylic acid ethyl ester]
8.79 |  | COC(=O)C1=C(CN2CC(F)(F)C[C@H]2C(=O)O)NC(c2cc(C)cs2)=N[C@H]1c1ccc(F)cc1Cl [Example 27, (R)-6-((S)-2-Carboxy-4,4-difluoro-pyrrolidin-1-ylmethyl)-4-(2-chloro-4-fluoro-phenyl)-2-(4-methyl-thiophen-2-yl)-1,4-dihydro-pyrimidine-5-carboxylic acid methyl ester]
6.56 | 667 (≈ 1280 µM) | COC(=O)C1=C(CN2CC(F)(F)C[C@H]2C(=O)O)NC(c2nccs2)=N[C@H]1c1ccc(C#N)cc1Cl [Example 30, (R)-6-((S)-2-Carboxy-4,4-difluoro-pyrrolidin-1-ylmethyl)-4-(2-chloro-4-cyano-phenyl)-2-thiazol-2-yl-1,4-dihydro-pyrimidine-5-carboxylic acid methyl ester]
7 | > 593 | CCOC(=O)C1=C(CN2CCOC[C@H]2C(=O)O)NC(c2cccc(C)n2)=N[C@H]1c1ccc(F)cc1Cl [Example 37, (S)-4-[(R)-6-(2-Chloro-4-fluoro-phenyl)-5-ethoxycarbonyl-2-(6-methyl-pyridin-2-yl)-3,6-dihydro-pyrimidin-4-ylmethyl]-morpholine-3-carboxylic acid]
8.45 | 409 (≈ 689 µM) | CCOC(=O)C1=C(CN2CC(F)(F)C[C@H]2C(=O)O)NC(c2nc(C(F)(F)F)cn2C)=N[C@H]1c1ccc(F)cc1Cl [Example 40, (R)-6-((S)-2-Carboxy-4,4-difluoro-pyrrolidin-1-ylmethyl)-4-(2-chloro-4-fluoro-phenyl)-2-(1-methyl-4-trifluoromethyl-1H-imidazol-2-yl)-1,4-dihydro-pyrimidine-5-carboxylic acid ethyl ester]
6.42 | 590 (≈ 1030 µM) | CCOC(=O)C1=C(CN2CC(F)(F)C[C@H]2C(=O)O)NC(c2nccs2)=N[C@H]1c1cccc(F)c1Br [Example 67, (R)-4-(2-Bromo-3-fluoro-phenyl)-6-((S)-2-carboxy-4,4-difluoro-pyrrolidin-1-ylmethyl)-2-thiazol-2-yl-1,4-dihydro-pyrimidine-5-carboxylic acid ethyl ester]
5.16 | > 670 | COC(=O)C1=C(CN2CC(F)(F)C[C@H]2C(=O)O)NC(c2nccs2)=N[C@H]1c1ccccc1Br [Example 72, (R)-4-(2-Bromo-phenyl)-6-((S)-2-carboxy-4,4-difluoro-pyrrolidin-1-ylmethyl)-2-thiazol-2-yl-1,4-dihydro-pyrimidine-5-carboxylic acid methyl ester]
1.72 | > 630 | COC(=O)C1=C(CN2CC(F)(F)C[C@H]2C(=O)O)NC(c2nccs2)=N[C@H]1c1ccc(Cl)cc1F [Example 76, (R)-6-((S)-2-Carboxy-4,4-difluoro-pyrrolidin-1-ylmethyl)-4-(4-chloro-2-fluoro-phenyl)-2-thiazol-2-yl-1,4-dihydro-pyrimidine-5-carboxylic acid methyl ester]
6.8 | > 596 | COC(=O)C1=C(CN2CSCCC2C(=O)O)NC(c2nccs2)=N[C@H]1c1ccc(F)cc1Cl (stereo partly drawn) [Example 86, 3-[[(4R)-4-(2-Chloro-4-fluoro-phenyl)-5-methoxycarbonyl-2-thiazol-2-yl-1,4-dihydropyrimidin-6-yl]methyl]-1,3-thiazinane-4-carboxylic acid]
0 |  | CCOC(=O)C1=C(CN2CCOC[C@H]2C(=O)O)NC(c2nccs2)=N[C@H]1c1ccc(Cl)cc1 [Example 126, (3S)-4-[[(4S)-4-(4-Chlorophenyl)-5-ethoxycarbonyl-2-(1,3-thiazol-2-yl)-1,4-dihydropyrimidin-6-yl]methyl]morpholine-3 carboxylic acid]

SMILES | Human Hepatic Clearance [1] [mL/min/kg] | solubility thermodynamic [2] [µg/mL]
CC(C)(C)OC(=O)C1=C(CN2CCOC[C@H]2C(=O)O)NC(c2nccs2)=N[C@H]1c1ccc(F)cc1Cl [Example 105, (S)-4-[5-tert-Butoxycarbonyl-6-(2-chloro-4-fluoro-phenyl)-2-thiazol-2-yl-3,6-dihydro-pyrimidin-4-ylmethyl]-morpholine-3-carboxylic acid] | 8.13 | 

Reference: patent US9447086B2, “6-amino acid heteroaryldihydropyrimidines for the treatment and prophylaxis of hepatitis B virus infection” (priority 2012, dated 2016)
